Results from ChEMBL document CHEMBL1201862, “PubChem BioAssay data set” (2004).
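Following 48 hours of exposure in 96-well plates, responses at five concentrations were used to interpolate endpoints linearly. The concentration for 50% growth inhibition is given as GI50.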 The source made the active and inactive calls. Cut-off read from the data, not from the text of the source: active = GI50 up to about 1.1 µM and inactive = higher.

How the values were obtained:
Assay in all cases: DTP human tumour cell line panel, 48 h
EKVX = test system: EKVX
MOLT-4 = test system: MOLT-4
K562 = test system: K562
HT-29 = test system: HT-29
OVCAR-5 = test system: OVCAR-5
SK-MEL-2 = test system: SK-MEL-2
SF-295 = test system: SF-295
SK-MEL-5 = test system: SK-MEL-5
CAKI-1 = test system: CAKI-1
U-251 = test system: U-251
NCI-H522 = test system: NCI-H522
HOP-62 = test system: HOP-62
SNB-19 = test system: SNB-19
COLO 205 = test system: COLO 205
A549 = test system: A549
HCT-15 = test system: HCT-15
SR = test system: SR

| SMILES | GI50 (EKVX) | GI50 (MOLT-4) | GI50 (K562) | GI50 (HT-29) | GI50 (OVCAR-5) | GI50 (SK-MEL-2) | GI50 (SF-295) | GI50 (SK-MEL-5) | GI50 (CAKI-1) | GI50 (U-251) | GI50 (NCI-H522) | GI50 (HOP-62) | GI50 (SNB-19) | GI50 (COLO 205) | GI50 (A549) | GI50 (HCT-15) [µM] | GI50 (SR) |
| --- | --- | --- | --- | --- | --- | --- | --- | --- | --- | --- | --- | --- | --- | --- | --- | --- | --- |
| O=C(CO)C1CC2C=CC1C2 (stereo not drawn) | > 100 µM (inactive) | > 100 µM (inactive) | > 100 µM (inactive) | > 100 µM (inactive) | > 100 µM (inactive) | > 100 µM (inactive) | > 100 µM (inactive) | > 100 µM (inactive) | > 100 µM (inactive) | > 100 µM (inactive) | > 100 µM (inactive) | > 100 µM (inactive) | > 100 µM (inactive) | > 100 µM (inactive) | > 100 µM (inactive) | > 100 |  |
| CCN(CC)C(=O)C/C(C)=N/NC(=O)c1ccncc1 | > 100 µM (inactive) | > 100 µM (inactive) | > 100 µM (inactive) | > 100 µM (inactive) | > 100 µM (inactive) | > 100 µM (inactive) | > 100 µM (inactive) | > 100 µM (inactive) |  | > 100 µM (inactive) | > 100 µM (inactive) | > 100 µM (inactive) |  | > 100 µM (inactive) | > 100 µM (inactive) |  |  |
| c1ccc2c(c1)OCCOCCOc1ccccc1OCCO2 | 75 µM (inactive) | 47.5 µM (inactive) | 28.4 µM (inactive) | 33.3 µM (inactive) | 77.3 µM (inactive) | 90.4 µM (inactive) | 62.4 µM (inactive) | 68.2 µM (inactive) | 78 µM (inactive) | 34.4 µM (inactive) | 32.7 µM (inactive) | 67.1 µM (inactive) | 64.6 µM (inactive) | 50.5 µM (inactive) | 71 µM (inactive) | 43.9 |  |
| CC(=O)Oc1c(C)c(-c2ccccc2)c(C)c(-c2ccccc2)c1C(=S)c1ccccc1 | > 100 µM (inactive) | 93.3 µM (inactive) | > 100 µM (inactive) | > 100 µM (inactive) | > 100 µM (inactive) | > 100 µM (inactive) | > 100 µM (inactive) | > 100 µM (inactive) |  | > 100 µM (inactive) | > 100 µM (inactive) | > 100 µM (inactive) | > 100 µM (inactive) | > 100 µM (inactive) | > 100 µM (inactive) | > 100 | 41.9 µM (inactive) |
| O=C(O)c1c2c(c(C(=O)O)c3ccccc13)-c1ccccc1-2 | 31.4 µM (inactive) | 39.5 µM (inactive) | 33.6 µM (inactive) | 47.4 µM (inactive) | > 100 µM (inactive) | 33.3 µM (inactive) | 33.6 µM (inactive) |  |  | 35.6 µM (inactive) | 35.2 µM (inactive) | 31.7 µM (inactive) | 36.6 µM (inactive) | 71.3 µM (inactive) | 36 µM (inactive) |  | 55.6 µM (inactive) |
| COc1nc(NC2OCC(OC(C)=O)C(OC(C)=O)C2OC(C)=O)c(-c2csc(N)n2)c(=O)n1C (stereo not drawn) |  | > 100 µM (inactive) | > 100 µM (inactive) | > 100 µM (inactive) | > 100 µM (inactive) | > 100 µM (inactive) | > 100 µM (inactive) | > 100 µM (inactive) | > 100 µM (inactive) | > 100 µM (inactive) | > 100 µM (inactive) | > 100 µM (inactive) | > 100 µM (inactive) | > 100 µM (inactive) | > 100 µM (inactive) | > 100 | > 100 µM (inactive) |
| CC1=CC(=O)c2c(C=O)c(O)c(O)c(C(C)C)c2C1=O |  | 21.2 µM (inactive) | 26.1 µM (inactive) |  | 35.5 µM (inactive) | 23.3 µM (inactive) |  | 0.494 µM (active) | 21.2 µM (inactive) | 19.8 µM (inactive) | 12.4 µM (inactive) | 32.5 µM (inactive) | 39.5 µM (inactive) | 25.1 µM (inactive) |  | 26.2 | 22.8 µM (inactive) |
| Cc1nc(C(=O)O)c2ccccc2n1 |  | > 100 µM (inactive) | > 100 µM (inactive) | > 100 µM (inactive) | > 100 µM (inactive) | > 100 µM (inactive) | > 100 µM (inactive) | > 100 µM (inactive) | > 100 µM (inactive) | > 100 µM (inactive) |  |  | > 100 µM (inactive) | > 100 µM (inactive) | > 100 µM (inactive) |  | > 100 µM (inactive) |
| CCN(CC)/C(=C\Cl)Nc1ccccn1.[O-][Cl+3]([O-])([O-])O | > 100 µM (inactive) | > 100 µM (inactive) | > 100 µM (inactive) | > 100 µM (inactive) | > 100 µM (inactive) | > 100 µM (inactive) | > 100 µM (inactive) | > 100 µM (inactive) | > 100 µM (inactive) | > 100 µM (inactive) | > 100 µM (inactive) | > 100 µM (inactive) | > 100 µM (inactive) | > 100 µM (inactive) | > 100 µM (inactive) | > 100 |  |
| CCc1cc(C)cc2[n+]1CC=C2C.[O-][Cl+3]([O-])([O-])[O-] | > 100 µM (inactive) |  |  | > 100 µM (inactive) | > 100 µM (inactive) | > 100 µM (inactive) | > 100 µM (inactive) | > 100 µM (inactive) | 65.9 µM (inactive) | > 100 µM (inactive) | 49.7 µM (inactive) | > 100 µM (inactive) | > 100 µM (inactive) | > 100 µM (inactive) | > 100 µM (inactive) |  |  |
| Cc1c(C(=O)/C=C/c2ccccc2O)c(=O)n(-c2ccccc2)n1C | 68.7 µM (inactive) | 19.3 µM (inactive) |  | 35.5 µM (inactive) | 66.8 µM (inactive) | 18 µM (inactive) | 14.6 µM (inactive) | 12.3 µM (inactive) | 21.8 µM (inactive) | 12.2 µM (inactive) | 18.1 µM (inactive) |  | 43.8 µM (inactive) | 26.4 µM (inactive) | 34 µM (inactive) | 24.2 |  |
| S=C(Nc1ccccc1)Nc1ccccc1SC(/C=C/NNC1=NN=C(c2ccccc2)C(c2ccccc2)N1)c1ccccc1 (stereo not drawn) | > 100 µM (inactive) | 13.4 µM (inactive) | 64.9 µM (inactive) | > 100 µM (inactive) | > 100 µM (inactive) | > 100 µM (inactive) | 69.3 µM (inactive) | 44.6 µM (inactive) | > 100 µM (inactive) | > 100 µM (inactive) | 8.85 µM (inactive) | 16.7 µM (inactive) | > 100 µM (inactive) | > 100 µM (inactive) | > 100 µM (inactive) | > 100 |  |
| O=C(O)c1c(-c2cccc3ccccc23)sc(-c2cccc3ccccc23)c1C(=O)O | 90.8 µM (inactive) | 27.2 µM (inactive) | 90.8 µM (inactive) | > 100 µM (inactive) | > 100 µM (inactive) | 35.9 µM (inactive) | > 100 µM (inactive) | > 100 µM (inactive) |  | > 100 µM (inactive) | 74.8 µM (inactive) |  | > 100 µM (inactive) | > 100 µM (inactive) | > 100 µM (inactive) | > 100 | 47.9 µM (inactive) |
| CCOC1=C2C(=O)OC(=O)C2C2CCCCC2=C1 (stereo not drawn) | > 100 µM (inactive) | > 100 µM (inactive) | > 100 µM (inactive) | > 100 µM (inactive) |  | > 100 µM (inactive) | > 100 µM (inactive) | > 100 µM (inactive) | > 100 µM (inactive) | > 100 µM (inactive) | > 100 µM (inactive) | > 100 µM (inactive) | > 100 µM (inactive) | > 100 µM (inactive) | > 100 µM (inactive) | > 100 |  |
| Cc1ccc(-c2nc3c(C(=O)NCCN(C)C)cccc3[nH]2)cc1 | 24.4 µM (inactive) | 3.51 µM (inactive) | 13.7 µM (inactive) | 15.5 µM (inactive) | 20.9 µM (inactive) | 18.5 µM (inactive) | 16.7 µM (inactive) | 13.7 µM (inactive) | 23.5 µM (inactive) | 18.3 µM (inactive) |  | 15.9 µM (inactive) | 26.1 µM (inactive) | 8 µM (inactive) | 11.2 µM (inactive) | 13.9 |  |
| O=C(N/C(=C\c1ccc(/C=C(\NC(=O)c2ccccc2)c2nc3cc(Cl)ccc3[nH]2)cc1)c1nc2cc(Cl)ccc2[nH]1)c1ccccc1 | 29 µM (inactive) | 3.89 µM (inactive) | 12 µM (inactive) | 26.3 µM (inactive) | > 100 µM (inactive) | 36.7 µM (inactive) | 28.4 µM (inactive) | 17.4 µM (inactive) | 40.9 µM (inactive) | 39.6 µM (inactive) | 13.6 µM (inactive) | 63.4 µM (inactive) | 51.9 µM (inactive) | 24.3 µM (inactive) | 24.9 µM (inactive) | 21.4 |  |
| COc1c(O)c2c3c(cc(C)cc3c1C(C)C)OC2 | > 100 µM (inactive) | > 100 µM (inactive) | > 100 µM (inactive) | > 100 µM (inactive) | > 100 µM (inactive) | > 100 µM (inactive) | > 100 µM (inactive) | > 100 µM (inactive) |  | > 100 µM (inactive) | > 100 µM (inactive) |  | > 100 µM (inactive) | > 100 µM (inactive) | > 100 µM (inactive) | > 100 | > 100 µM (inactive) |
| COC(=O)[C@@]12C(=O)C=CC(=O)C1C1C(=CC2C)OC2OC3(CCCCC3)OC21 (stereo partly drawn) | 19.7 µM (inactive) | 6.11 µM (inactive) | 6.9 µM (inactive) | 21.6 µM (inactive) | 14.3 µM (inactive) | 19 µM (inactive) | 18.9 µM (inactive) | 19.3 µM (inactive) | 18.2 µM (inactive) | 17.7 µM (inactive) | 9.71 µM (inactive) | 19.9 µM (inactive) | 17.7 µM (inactive) | 14.2 µM (inactive) | 19.3 µM (inactive) | 13.2 |  |
